Source: patent US8877741B2, “Pyrrolidine derivatives, pharmaceutical compositions and uses thereof” (Boehringer Ingelheim International GmbH, priority 2013, dated 2014)

biological target: human ACC2 (Homo sapiens (Human), UniProt O00763); test: ACC2 assay, spectrophotometric 384 well assay (NADH-linked kinetic method); type: biochemical; settings: human ACC2 construct lacking the 128 N-terminal amino acids; coupled lactate dehydrogenase/pyruvate kinase reaction, 340 nm, 25° C.
Procedure, shortened: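 N-terminally truncated human ACC2 (lacking 128 residues), expressed in insect cells, was coupled to pyruvate kinase/lactate dehydrogenase, with NADH and acetyl-CoA at 2000 μM and ATP at 500 μM final. The OD340 decrease was followed over 15 min at 25 °C. Slopes were normalised to vehicle and no-acetyl-CoA controls, and IC50 came from four-parameter regression.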

Sequence of human ACC2 (O00763 129-2458): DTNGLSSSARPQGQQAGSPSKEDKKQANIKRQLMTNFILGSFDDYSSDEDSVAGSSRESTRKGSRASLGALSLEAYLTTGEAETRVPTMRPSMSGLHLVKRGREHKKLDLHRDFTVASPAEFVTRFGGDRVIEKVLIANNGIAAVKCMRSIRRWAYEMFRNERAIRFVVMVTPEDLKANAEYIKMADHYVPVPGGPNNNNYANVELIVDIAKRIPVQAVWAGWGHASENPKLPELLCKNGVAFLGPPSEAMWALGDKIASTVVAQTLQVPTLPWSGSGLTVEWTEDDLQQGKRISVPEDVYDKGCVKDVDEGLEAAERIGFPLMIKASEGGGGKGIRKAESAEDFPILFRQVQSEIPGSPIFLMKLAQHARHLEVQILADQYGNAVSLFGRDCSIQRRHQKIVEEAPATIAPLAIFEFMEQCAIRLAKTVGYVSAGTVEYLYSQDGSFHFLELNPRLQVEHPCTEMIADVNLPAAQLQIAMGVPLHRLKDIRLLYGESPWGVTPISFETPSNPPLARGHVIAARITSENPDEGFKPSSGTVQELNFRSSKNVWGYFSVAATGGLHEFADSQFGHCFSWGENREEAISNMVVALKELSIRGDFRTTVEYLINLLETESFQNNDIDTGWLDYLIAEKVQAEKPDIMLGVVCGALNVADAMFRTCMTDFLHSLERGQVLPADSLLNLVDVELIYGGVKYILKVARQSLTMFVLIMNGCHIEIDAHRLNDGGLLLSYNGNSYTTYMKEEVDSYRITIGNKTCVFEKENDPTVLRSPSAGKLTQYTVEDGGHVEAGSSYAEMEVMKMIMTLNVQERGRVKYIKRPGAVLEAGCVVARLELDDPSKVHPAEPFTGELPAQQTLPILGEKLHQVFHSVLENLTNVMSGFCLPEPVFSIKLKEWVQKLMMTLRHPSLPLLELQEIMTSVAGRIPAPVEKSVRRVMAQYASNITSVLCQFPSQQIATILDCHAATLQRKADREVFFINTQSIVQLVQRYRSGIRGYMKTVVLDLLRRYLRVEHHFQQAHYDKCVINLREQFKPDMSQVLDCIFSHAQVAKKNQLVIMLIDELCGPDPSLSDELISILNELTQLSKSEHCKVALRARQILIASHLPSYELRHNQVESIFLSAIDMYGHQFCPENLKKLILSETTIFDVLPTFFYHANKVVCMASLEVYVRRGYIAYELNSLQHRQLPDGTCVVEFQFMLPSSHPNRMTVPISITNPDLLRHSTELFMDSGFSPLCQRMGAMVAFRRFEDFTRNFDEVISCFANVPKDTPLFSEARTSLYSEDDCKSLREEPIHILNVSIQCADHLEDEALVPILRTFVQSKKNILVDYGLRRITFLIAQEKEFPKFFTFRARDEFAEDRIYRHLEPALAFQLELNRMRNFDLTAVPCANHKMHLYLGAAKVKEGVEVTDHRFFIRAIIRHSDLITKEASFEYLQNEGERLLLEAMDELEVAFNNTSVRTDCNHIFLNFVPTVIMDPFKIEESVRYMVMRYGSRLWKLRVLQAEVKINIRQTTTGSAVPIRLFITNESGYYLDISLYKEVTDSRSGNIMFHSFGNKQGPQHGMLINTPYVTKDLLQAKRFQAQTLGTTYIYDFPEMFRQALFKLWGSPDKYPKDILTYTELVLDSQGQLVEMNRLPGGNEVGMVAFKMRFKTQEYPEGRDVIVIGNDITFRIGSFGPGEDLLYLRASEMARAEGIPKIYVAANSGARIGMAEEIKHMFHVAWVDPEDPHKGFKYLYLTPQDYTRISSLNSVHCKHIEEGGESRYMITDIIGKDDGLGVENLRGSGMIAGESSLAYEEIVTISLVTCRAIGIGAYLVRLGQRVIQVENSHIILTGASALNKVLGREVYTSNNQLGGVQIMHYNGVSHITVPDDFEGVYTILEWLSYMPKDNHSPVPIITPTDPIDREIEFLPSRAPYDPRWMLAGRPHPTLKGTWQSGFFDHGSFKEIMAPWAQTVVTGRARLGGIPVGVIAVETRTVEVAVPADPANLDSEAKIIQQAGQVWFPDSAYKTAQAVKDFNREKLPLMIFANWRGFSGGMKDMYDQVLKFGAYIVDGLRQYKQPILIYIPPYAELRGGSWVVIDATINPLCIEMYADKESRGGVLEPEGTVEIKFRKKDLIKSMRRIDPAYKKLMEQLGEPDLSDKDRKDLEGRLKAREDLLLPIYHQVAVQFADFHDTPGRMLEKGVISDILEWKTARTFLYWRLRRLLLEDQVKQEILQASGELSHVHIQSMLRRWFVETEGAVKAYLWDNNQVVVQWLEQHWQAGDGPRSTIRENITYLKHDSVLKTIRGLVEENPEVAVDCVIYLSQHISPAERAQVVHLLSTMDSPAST

Structure (SMILES)	IC50
C[C@H](NC(=O)c1ccon1)c1ccc(OC2CCN(c3cccc(C(F)(F)F)n3)C2)cc1 (some centres unmarked) [Example 2.51]	128 nM
CC(=O)N[C@@H](C)c1ccc(OC2CCN(c3cccc(C(C)C)n3)C2)cc1 (some centres unmarked) [Example 1.63]	55 nM
CC(C)Oc1cc(N2CCC(Oc3ccc([C@H](C)NC(=O)c4ccon4)cc3)C2)ccn1 (some centres unmarked) [Example 2.28]	512 nM
CC(=O)N[C@@H](C)c1ccc(O[C@@H]2CCN(c3ccnc(NCC4CC4)c3F)C2)cc1 [Example 1.114]	43 nM
C[C@H](NC(=O)c1cnc(N)o1)c1ccc(OC2CCN(c3ccnc(OCC(F)F)c3)C2)cc1 (some centres unmarked) [Example 2.103]	523 nM
CC(=O)N[C@@H](C)c1ccc(OC2CCN(c3ccc(C4CC4)cn3)C2)cc1 (some centres unmarked) [Example 1.70]	722 nM
CC(=O)N[C@@H](C)c1ccc(OC2CCN(c3cnc(OCC4CC4(F)F)cc3C)C2)cc1 (some centres unmarked) [Example 1.40]	775 nM
C[C@H](NC(=O)c1cnn(C)c1Cl)c1ccc(OC2CCN(c3ccnc(OCC4CC4)c3)C2)cc1 (some centres unmarked) [Example 2.69]	281 nM
CC(=O)N[C@@H](C)c1ccc(O[C@@H]2CCN(c3cccc(N(C)CC(F)F)n3)C2)cc1 [Example 1.133]	246 nM
C[C@H](NC(=O)c1ccon1)c1ccc(OC2CCN(c3ccnc(OCC(F)F)c3)C2)cc1 (some centres unmarked) [Example 2.110]	263 nM
CNC(=O)N[C@@H](C)c1ccc(OC2CCN(c3ccc(OCC4CC4(F)F)cn3)C2)cc1 (some centres unmarked) [Example 3.20]	92 nM
COc1c(N2CC[C@@H](Oc3ccc([C@H](C)NC(C)=O)cc3)C2)ccnc1OC(C)C [Example 1.150]	69 nM
CC(=O)N[C@@H](C)c1ccc(OC2CCN(c3ccc(OCCC4CC4)cn3)C2)cc1 (some centres unmarked) [Example 1.31]	139 nM
CCOc1cc(N2CCC(Oc3ccc([C@H](C)NC(C)=O)cc3)C2)ccn1 (some centres unmarked) [Example 1.12]	265 nM
CC(C)Oc1cc(N2CCC(Oc3ccc([C@H](C)NC(=O)c4ccoc4)cc3)C2)ccn1 (some centres unmarked) [Example 2.20]	110 nM
CNC(=O)N[C@@H](C)c1ccc(OC2CCN(c3ccnc(OCC4CC4)c3)C2)cc1 (some centres unmarked) [Example 3.5]	50 nM
CC(=O)N[C@@H](C)c1ccc(OC2CCN(c3ccc(OC4CCC4)nc3)C2)cc1 (some centres unmarked) [Example 1.21]	335 nM
C[C@H](NC(=O)c1cnn(C)c1N)c1ccc(OC2CCN(c3ccnc(OCC(F)F)c3)C2)cc1 (some centres unmarked) [Example 2.112]	298 nM
CC(=O)N[C@@H](C)c1ccc(OC2CCN(c3ccc(OCC(C)C)cn3)C2)cc1 (some centres unmarked) [Example 1.8]	375 nM
C[C@H](NC(=O)c1cnn(C)c1N)c1ccc(OC2CCN(c3ccnc(OCC4CC4)c3)C2)cc1 (some centres unmarked) [Example 2.82]	300 nM
C[C@H](NC(=O)c1cncs1)c1ccc(OC2CCN(c3ccnc(OCC(F)F)c3)C2)cc1 (some centres unmarked) [Example 2.101]	76 nM
CC(C)Oc1cc(N2CCC(Oc3ccc([C@H](C)NC(=O)C(F)F)cc3)C2)ccn1 (some centres unmarked) [Example 2.19]	250 nM

Structure (SMILES)	IC50
CC(=O)N[C@@H](C)c1ccc(OC2CCN(c3ccc(OCCCF)nc3)C2)cc1 (some centres unmarked) [Example 1.88]	423 nM
C[C@H](NC(=O)C1CC1)c1ccc(OC2CCN(c3ccc(OC[C@H]4CC4(F)F)cn3)C2)cc1 (some centres unmarked) [Example 2.94]	84 nM
CCCOc1nccc(N2CC[C@@H](Oc3ccc([C@H](C)NC(C)=O)cc3)C2)c1OC [Example 1.121]	41 nM
C[C@H](NC(=O)c1ccnc(C#N)c1)c1ccc(OC2CCN(c3cccc(C(F)(F)F)n3)C2)cc1 (some centres unmarked) [Example 2.62]	175 nM
CC(=O)N[C@@H](C)c1ccc(OC2CCN(c3ccc(OCC4CC4(F)F)nc3)C2)cc1 (some centres unmarked) [Example 1.42]	219 nM
CC(C)Oc1cc(N2CCC(Oc3ccc([C@H](C)NC(=O)C4CCC4)cc3)C2)ccn1 (some centres unmarked) [Example 2.25]	564 nM
CC(=O)N[C@@H](C)c1ccc(OC2CCN(c3ncc(OC4CC4)cc3F)C2)cc1 (some centres unmarked) [Example 1.67]	463 nM
COCC(=O)Nc1nc(C)c(C(=O)N[C@@H](C)c2ccc(OC3CCN(c4ccnc(OCC(F)F)c4)C3)cc2)s1 (some centres unmarked) [Example 2.96]	55 nM
CCOc1cccc(N2CCC(Oc3ccc([C@H](C)NC(C)=O)cc3)C2)n1 (some centres unmarked) [Example 1.62]	802 nM
CCCOc1cc(N2CCC(Oc3ccc([C@H](C)NC(C)=O)cc3)C2)c(C)cn1 (some centres unmarked) [Example 1.90]	379 nM
C[C@H](NC(=O)c1cnco1)c1ccc(OC2CCN(c3ccc(OCC4CC4(F)F)cn3)C2)cc1 (some centres unmarked) [Example 2.121]	43 nM
CC(=O)Nc1nc(C)c(C(=O)N[C@@H](C)c2ccc(O[C@@H]3CCN(c4cccc(C(F)(F)F)n4)C3)cc2)s1 [Example 1.45]	64 nM
COc1c(N2CC[C@@H](Oc3ccc([C@H](C)NC(C)=O)cc3)C2)ccnc1OCCC1CC1 [Example 1.139]	37 nM
CC(C)Oc1cc(N2CCC(Oc3ccc([C@H](C)NC(=O)C(C)(F)F)cc3)C2)ccn1 (some centres unmarked) [Example 2.29]	267 nM
C[C@H](NC(=O)c1cn[nH]c1)c1ccc(OC2CCN(c3ccnc(OCC4CC4)c3)C2)cc1 (some centres unmarked) [Example 2.86]	63 nM
CCOc1ccc(N2CCC(Oc3ccc([C@H](C)NC(C)=O)cc3)C2)nc1 (some centres unmarked) [Example 1.6]	306 nM
C[C@H](NC(=O)C1(C)CC1)c1ccc(OC2CCN(c3cccc(C(F)(F)F)n3)C2)cc1 (some centres unmarked) [Example 2.40]	139 nM
CC(=O)NC1CCN(C(=O)N[C@@H](C)c2ccc(OC3CCN(c4ccc(OCC5CC5(F)F)cn4)C3)cc2)CC1 (some centres unmarked) [Example 3.11]	314 nM
CC(=O)N[C@@H](C)c1ccc(OC2CCN(c3cc(OC(C)C)ncc3F)C2)cc1 (some centres unmarked) [Example 1.74]	100 nM
C[C@H](NC(=O)Nc1ccon1)c1ccc(O[C@@H]2CCN(c3ccc(OCC4CC4(F)F)cn3)C2)cc1 (stereo partly drawn) [Example 3.1, 1-((1S)-1-(4-((3R)-1-(5-((2,2-Difluorocyclopropyl)methoxy)pyridin-2-yl)pyrrolidin-3-yloxy)phenyl)ethyl)-3-(isoxazol-3-yl)urea]	81 nM
CC(=O)N[C@@H](C)c1ccc(OC2CCN(c3ncc(OCC4CC4)cc3F)C2)cc1 (some centres unmarked) [Example 1.7]	137 nM

Now from value to compound:

IC50	Structure (SMILES)
500 nM	CC(=O)N[C@@H](C)c1ccc(O[C@@H]2CCN(c3ccnc(O[C@@H]4CCC[C@@H]4O)c3)C2)cc1 [Example 9.45]
154 nM	CCN(C)c1cccc(N2CC[C@@H](Oc3ccc([C@H](C)NC(C)=O)cc3)C2)n1 [Example 10.30]
80 nM	CC(=O)N[C@@H](C)c1ccc(O[C@@H]2CCN(c3ccnc(N4CCC(C)(O)C4)c3F)C2)cc1 (some centres unmarked) [Example 10.52]
44 nM	CC(=O)N[C@@H](C)c1ccc(O[C@@H]2CCN(c3ccnc(OCC4CC4(F)F)c3F)C2)cc1 (some centres unmarked) [Example 9.62]
325 nM	COC1CCCN(c2cccc(N3CC[C@@H](Oc4ccc([C@H](C)NC(C)=O)cc4)C3)n2)C1 (some centres unmarked) [Example 10.37]
1020 nM	COC[C@H]1CCCN1c1cccc(N2CC[C@@H](Oc3ccc([C@H](C)NC(C)=O)cc3)C2)n1 [Example 10.41]
85 nM	C[C@H](NC(=O)c1cncs1)c1ccc(O[C@@H]2CCN(c3ccnc(OC4CCOC4)c3)C2)cc1 (some centres unmarked) [Example 9.65]
125 nM	CC(=O)N[C@@H](C)c1ccc(O[C@@H]2CCN(c3ccnc(OCC4CCOC4)c3)C2)cc1 (some centres unmarked) [Example 9.26]
495 nM	CC(=O)N[C@@H](C)c1ccc(O[C@@H]2CCN(c3ccnc(OCC4CCCO4)c3)C2)cc1 (some centres unmarked) [Example 9.48]
399 nM	CC(=O)N[C@@H](C)c1ccc(O[C@@H]2CCN(c3cccc(N(C)CC(C)C)n3)C2)cc1 [Example 10.36]
1100 nM	CC(=O)N[C@@H](C)c1ccc(O[C@@H]2CCN(c3ccnc(C(=O)Nc4ccc(Cl)cc4)c3)C2)cc1 [Example 8.11]
115 nM	CC(=O)N[C@@H](C)c1ccc(O[C@@H]2CCN(c3cccc(N4CCC(C)C4)n3)C2)cc1 (some centres unmarked) [Example 10.10]
510 nM	CCOc1cc(N2CC[C@@H](Oc3ccc([C@H](C)NC(=O)C4CC4)cc3)C2)ccn1 [Example 9.38]
49 nM	C[C@H](NC(=O)N(C)C)c1ccc(OC2CCN(c3ccnc(OCC4CC4(F)F)c3F)C2)cc1 (some centres unmarked) [Example 5.4]
245 nM	CC(=O)N[C@@H](C)c1ccc(O[C@@H]2CCN(c3cccc(N4CCC5(CC5)C4)n3)C2)cc1 [Example 10.32]
61 nM	CC(=O)N[C@@H](C)c1ccc(O[C@@H]2CCN(c3ccnc(OCC(F)F)c3F)C2)cc1 [Example 9.52]
167 nM	CC(=O)N[C@@H](C)c1ccc(O[C@@H]2CCN(c3cc(N4CCCC4)ncc3F)C2)cc1 [Example 10.20]
639 nM	CO[C@@H](C)COc1cc(N2CC[C@@H](Oc3ccc([C@H](C)NC(C)=O)cc3)C2)ccn1 [Example 9.44]
402 nM	CC(=O)N[C@@H](C)c1ccc(O[C@@H]2CCN(c3ccnc(OCc4cccnc4)c3)C2)cc1 [Example 9.30]
35 nM	CCN(CC)c1nccc(N2CC[C@@H](Oc3ccc([C@H](C)NC(C)=O)cc3)C2)c1F [Example 10.19]
35 nM	CC(=O)N[C@@H](C)c1ccc(O[C@@H]2CCN(c3ccnc(N4CCCC4)c3F)C2)cc1 [Example 10.16]
124 nM	CC(=O)N[C@@H](C)c1ccc(O[C@@H]2CCN(c3cc(OCC(F)F)ncc3F)C2)cc1 [Example 9.70]
65 nM	CC(=O)N[C@@H](C)c1ccc(O[C@@H]2CCN(c3ccnc(NCC(C)(C)O)c3Cl)C2)cc1 [Example 10.51]
184 nM	C[C@H](NC(=O)C1CC1)c1ccc(O[C@@H]2CCN(c3ccnc(O[C@@H]4CCOC4)c3)C2)cc1 [Example 9.43]
90 nM	CC(=O)N[C@@H](C)c1ccc(O[C@@H]2CCN(c3ccnc(OCC(F)F)c3)C2)cc1 [Example 9.31]
745 nM	CC(=O)N[C@@H](C)c1ccc(O[C@@H]2CCN(c3ccnc(O[C@@H]4CCC[C@H]4O)c3)C2)cc1 [Example 9.47]
305 nM	CC(=O)N[C@@H](C)c1ccc(O[C@@H]2CCN(c3ccnc(OCC(C)(C)O)c3)C2)cc1 [Example 9.32]
614 nM	C[C@H](NC(=O)CO)c1ccc(OC2CCN(c3cccc(C(F)(F)F)n3)C2)cc1 (some centres unmarked) [Example 6.2]
